{"source": "patent US20050222183A1", "about": "“Combination of zd6474, an inhibitor of the vascular endothelial growth factor receptor, with radiotherapy in the treatment of cancer” (priority 2002, published 2005)", "key": {"[1]": {"system": "Calu-6 (lung carcinoma) tumour xenografts", "experiment": "Calu-6 xenograft model: ZD6474 25 mg/kg given after ionising radiation", "type": "in vivo, female Alderley Park nude mice", "protocol": "Calu-6 (lung carcinoma) cells were obtained from the American Type Culture Collection (Manassas, Va.). All cell culture reagents, where not specified, were obtained from Life Technologies, Paisley, UK. Cells were maintained as exponentially growing monolayers in Eagle's Minimal Essential Medium (EMEM) containing 10% FCS (Labtech International, Ringmer, UK), 2 mM L-glutamine (Sigma Chemical Co., Poole, UK), 1% sodium pyruvate (100 mM) and 1% non-essential amino acids. Cells were periodically screened for the presence of microplasma in culture, and analysed for 15 types of virus in a mouse antibody production test (AstraZeneca Central Toxicology Laboratories, Alderley Park, UK) prior to routine use in vivo.\nCalu-6 cells (2×10^7 cells/ml) were prepared for implantation in a mixture of 50% (v/v) matrigel (Fred Baker, Liverpool, UK) in serum free Roswell Park Memorial Institute (RPMI)-1640 media. Tumour xenografts were established by subcutaneously injecting 0.1 ml of the cell suspension (i.e. 2×10^6 cells/mouse) into female Alderley Park nude mice (nu/nu genotype; 8-10 weeks of age). Once a palpable tumour was evident, tumour volume was assessed daily by calliper measurement and calculated using the formula, length×width×height.\nMice were randomised into groups of eight, prior to treatment, when tumours measured 225-315 mm^3. Ionising radiation, where given, was administered at a dose rate of 2 Gy per min to unanaesthetised mice restrained in polyvinyl jigs with lead shielding and a cut away section to allow local irradiation of the tumour by the unilateral beam (Pantac X-ray set). Jigs were turned through 180° halfway through the radiation exposure time to provide a uniform dosing. Radiation was administered either as a single dose (5 Gy on day 1) or by multiple daily dosing (2 Gy/day on days 1-3). Thirty minutes after the last dose of radiation, ZD6474 (25 mg/kg), or vehicle, was administered by oral gavage (0.1 ml/10 g body weight) and then once-daily thereafter for a further 13 days (i.e. 14 days of oral treatment in total). ZD6474 was prepared as a suspension in 1% polysorbate 80 (i.e. a 1% (v/v) solution of polyoxyethylene (20) sorbitan mono-oleate in deionised water). Mice were humanely killed when the relative volume of their tumour reached four times that at the initiation of therapy (RTV4). A two-tailed two-sample t-test was used to evaluate the significance of the results obtained."}, "[2]": {"system": "Calu-6 tumours", "experiment": "Calu-6 xenograft model: schedules, ZD6474 50 mg/kg concurrent or sequential with radiotherapy", "type": "in vivo, mice", "details": "for Growth delay (days ± SE): RTV4 relative to control", "protocol": "In an analogous experiment using the Calu-6 xenograft model described hereinbefore different schedules were investigated.\nMice bearing Calu-6 tumours (220-300 mm^3) were randomized into groups of eight, to receive either ZD6474 (50 mg/kg p.o. once daily) or vehicle only (1% polysorbate in deionized water) for the duration of the experiment. ZD6474, or vehicle, was also administered with or without radiotherapy (3×2 Gy at 24-hour intervals during the first 3 days of treatment). Where mice received 50 mg/kg ZD6474 plus radiation therapy, two treatment schedules were examined. • a) Concurrent combination treatment: ZD6474 dosing given 2 hours prior to the first dose of radiation; and • b) Sequential combination treatment: ZD6474 dosing given 30 minutes after the last dose of radiotherapy. […]\nTreatment efficacy was assessed by measuring the time for tumours to quadruple in volume (RTV4) from their pretreatment size and calculating the relative growth delay (i.e. comparing RTV4 values from individual treated groups, with that of the control)."}}}
{"smiles": "COc1cc2c(Nc3ccc(Br)cc3F)ncnc2cc1OCC1CCN(C)CC1", "note": "[ZD6474, 4-(4-bromo-2-fluoroanilino)-6-methoxy-7-(1-methylpiperidin-4-ylmethoxy)quinazoline]", "values": [{"measurement": "RTV4", "setting": "[1]; 3 × 2Gy (days 1-3), then ZD6474 25 mg/kg/day oral for 14 days post-irradiation", "value": 28.1, "unit": "days"}, {"measurement": "Therapeutic effect of radiation plus ZD6474 versus either therapy alone", "setting": "[1]; 5 Gy or 3×2 Gy plus ZD6474 25 mg/kg", "value": "better therapeutic effect than either therapy alone"}, {"measurement": "RTV4", "setting": "[1]; 5 Gy single dose on day 1, then ZD6474 25 mg/kg/day oral for 14 days post-irradiation", "value": 25.5, "unit": "days"}, {"measurement": "RTV4", "setting": "[1]; ZD6474 25 mg/kg/day oral for 14 days, no radiation, time for tumour to reach four times its volume at initiation of therapy", "value": 12.1, "unit": "days"}, {"measurement": "Growth delay of combination versus either single treatment", "setting": "[2]; 50 mg/kg ZD6474 combined with 3×2 Gy radiation", "value": "significantly greater than that of either single treatment alone"}, {"measurement": "RTV4 (days ± SE)", "setting": "[2]; 50 mg/kg ZD6474 p.o. once daily, no radiation, n = 8", "value": "17 ± 1.0", "unit": "days"}, {"measurement": "Growth delay (days ± SE)", "setting": "[2]; 50 mg/kg ZD6474 p.o. once daily, no radiation", "value": "9 ± 1.1", "unit": "days"}, {"measurement": "Growth delay (days ± SE)", "setting": "[2]; 3 × 2 Gy plus 50 mg/kg ZD6474 (concurrent)", "value": "22 ± 1.1", "unit": "days"}, {"measurement": "RTV4 (days ± SE)", "setting": "[2]; 3 × 2 Gy plus 50 mg/kg ZD6474 (concurrent: dosing begun 2 hours prior to first dose of radiation)", "value": "30 ± 1.0", "unit": "days"}, {"measurement": "Growth delay (days ± SE)", "setting": "[2]; 3 × 2 Gy plus 50 mg/kg ZD6474 (sequential)", "value": "36 ± 1.0", "unit": "days"}, {"measurement": "RTV4 (days ± SE)", "setting": "[2]; 3 × 2 Gy plus 50 mg/kg ZD6474 (sequential: dosing begun 30 minutes after last dose of radiotherapy)", "value": "44 ± 0.9", "unit": "days"}, {"measurement": "Tumour growth inhibition, sequential versus concurrent combination", "setting": "[2]; 3×2 Gy radiation and 50 mg/kg ZD6474", "value": "inhibited tumour growth significantly more than when the same agents were combined concurrently"}, {"measurement": "Antitumour effect of sequential combination versus sum of individual therapies", "setting": "[2]; sequential 3×2 Gy radiation and 50 mg/kg ZD6474", "value": "greater than the sum of the growth delays induced by the individual therapies"}]}
